The record followed here is patent US8658675B2, “Pyridin-4-yl derivatives” (Actelion Pharmaceuticals Ltd., priority 2009, dated 2014).

The structures appear in SMILES notation. Bounds are passed on as bounds.

Data set [1] has as its target human S1P1 receptor (Homo sapiens, UniProt P21453). As to the kind of experiment: GTPγS assay to determine EC50 values. The data set is classed as biochemical. The settings on record: membranes of CHO cells expressing recombinant human S1P1 receptor; 35S-GTPγS binding. The protocol: GTPγS binding assays are performed in 96 well microtiter plates (Nunc, 442587) in a final volume of 200 μl, using membrane preparations of CHO cells expressing recombinant human S1P1 receptor. Assay conditions are 20 mM Hepes (Fluka, 54461), 100 mM NaCl (Fluka, 71378), 5 mM MgCl2 (Fluka, 63064), 0.1% BSA (Calbiochem, 126609), 1 μM GDP (Sigma, G-7127), 2.5% DMSO (Fluka, 41644), […] ^35S-GTPγS (Amersham Biosciences, SJ1320). The pH is 7.4. Test compounds are dissolved and diluted in 100% DMSO and pre-incubated at room temperature for 30 min in 150 μl of the above assay buffer, in the absence of ^35S-GTPγS. After addition of 50 μl of ^35S-GTPγS, the assay is incubated for 1 h at rt. The assay is terminated by transfer of the reaction mixture to a Multiscreen plate (Millipore, MAHFC1H60) using a cell harvester from Packard Biosciences, and the plates are washed with ice-cold 10 mM Na2HPO4/NaH2PO4 (70%/30%), dried, sealed at the bottom and, after addition of 25 μl MicroScint20 (Packard Biosciences, order#6013621), sealed on the top. Membrane-bound ^35S-GTPγS is measured with a TopCount from Packard Biosciences.
EC50 is the concentration of agonist inducing 50% of the maximal specific ^35S-GTPγS binding. Specific binding is determined by subtracting non-specific binding from maximal binding. Maximal binding is the amount of cpm bound to the Multiscreen plate in the presence of 10 μM of S1P. Non-specific binding is the amount of binding in the absence of an agonist in the assay.
Agonistic activities (EC50 values) of all exemplified compounds have been measured.
(GTPγS is a poorly hydrolysed GTP analogue; its binding reports G protein activation.)

For data set [2], the system named is circulating lymphocytes. As to the kind of experiment: Assessment of in vivo efficacy: circulating lymphocytes after oral administration. The arrangement: species or system normotensive male Wistar rats. As to conditions: Rattus norvegicus, Lymphocyte; 6 h after oral administration of 10 mg/kg, male Wistar rats, compared to vehicle group; read-out: Lymphocyte counts. Here is the method: The efficacy of the compounds of Formula (I) is assessed by measuring the circulating lymphocytes after oral administration of 3 to 30 mg/kg of a compound of Formula (I) to normotensive male Wistar rats. The animals are housed in climate-controlled conditions with a 12 h-light/dark cycle, and have free access to normal rat chow and drinking water. Blood is collected before and 3, 6 and 24 h after drug administration. Full blood is subjected to hematology using Advia Hematology system (Bayer Diagnostics, Zurich, Switzerland).
All data are presented as mean±SEM. Statistical analyses are performed by analysis of variance (ANOVA) using Statistica (StatSoft) and the Student-Newman-Keuls procedure for multiple comparisons. The null hypothesis is rejected when p<0.05.
Lymphocyte counts 6 h after oral administration have been measured for 23 out of 30 exemplified compounds and are in the range of −42% to −80% with an average of −63%.

Data set [3] deals with rat trachea rings. As to the kind of experiment: Measurement of isometric force development: rat trachea ring constriction. Also noted: species or system Female Wistar rats. As to conditions: for % trachea constriction at 1 μM: compound at 1 μM, in % of the constriction induced by 50 mM KCl. The protocol:
Animals were obtained from RCC Ltd (Füllinsdorf, Switzerland). Female Wistar rats were euthanized by exposure to CO2. The tracheae were excised and rings from the lower segments were prepared. Rings of trachea were suspended in tissue baths (10 mL) containing Krebs-Henseleit buffer of the following composition (mM): NaCl 115; KCl 4.7; MgSO4 1.2; KH2PO4 1.5; CaCl2 2.5; NaHCO3 25; glucose 10. Bathing solution was maintained at 37° C. and aerated with 95% O2/5% CO2 (pH 7.4). A resting force of 2 g (20 mN) was applied to the ring preparation, and changes in force generation were measured using an isometric force recorder (EMKA Technologies Inc, Paris, France). Viability of rings was assessed by exposure to a depolarizing concentration of KCl (50 mM). Contraction of trachea was expressed as a percentage of the response to KCl.
All compounds were prepared as stock solutions of 0.3 mM in pure DMSO. Compounds were added to the bath (10 mL) in a volume of 33 μL to give a final bath concentration of DMSO of 0.33%.
Contraction of trachea was measured for 15 out of 30 exemplified compounds.

human S1P1 receptor, sequence (P21453 whole entry): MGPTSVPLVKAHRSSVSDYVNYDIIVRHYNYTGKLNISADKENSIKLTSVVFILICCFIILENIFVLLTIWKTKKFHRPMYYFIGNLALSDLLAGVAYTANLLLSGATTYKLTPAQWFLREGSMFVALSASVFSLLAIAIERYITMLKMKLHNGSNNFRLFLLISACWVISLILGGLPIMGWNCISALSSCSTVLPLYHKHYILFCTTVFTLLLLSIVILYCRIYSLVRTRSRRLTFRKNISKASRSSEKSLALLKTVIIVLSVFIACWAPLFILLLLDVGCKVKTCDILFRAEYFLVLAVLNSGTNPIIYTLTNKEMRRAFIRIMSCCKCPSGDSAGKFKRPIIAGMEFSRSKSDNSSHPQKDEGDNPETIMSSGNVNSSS

The term EC50 denotes the concentration that produces a half-maximal response. In the case of `CCc1cc(-c2noc(-c3cc(CCC(C)C)nc(OC)c3)n2)cc(C)c1NS(C)(=O)=O` [Example 30, N-(2-Ethyl-4-(5-(2-isopentyl-6-methoxypyridin-4-yl)-1,2,4-oxadiazol-3-yl)-6-methylphenyl)methanesulfonamide], the concentration giving a half-maximal response (EC50) in data set [1] is 5.6 nM.
Regarding `CCc1cc(-c2nnc(-c3cc(OC)nc(C4CCCC4)c3)o2)cc(C)c1OC[C@H](O)CO` [Example 26, (R)-3-{4-[5-(2-Cyclopentyl-6-methoxy-pyridin-4-yl)-[1,3,4]oxadiazol-2-yl]-2-ethyl-6-methyl-phenoxy}-propane-1,2-diol], the EC50 in data set [1] was 4 nM.
Take `CCc1cc(-c2nc(-c3cc(OC)nc(C4CCCC4)c3)no2)cc(C)c1OC[C@H](O)CNC(=O)CO` [Example 24, N-((2R)-3-{4-[3-(2-Cyclopentyl-6-methoxy-pyridin-4-yl)-[1,2,4]oxadiazol-5-yl]-2-ethyl-6-methyl-phenoxy}-2-hydroxy-propyl)-2-hydroxy-acetamide]: the EC50 in data set [1] is 1.6 nM.
As to `CCc1cc(-c2nnc(-c3cc(OC)nc(C4CCCC4)c3)o2)cc(C)c1OC[C@@H](O)CO` [Example 25, (S)-3-{4-[5-(2-Cyclopentyl-6-methoxy-pyridin-4-yl)-[1,3,4]oxadiazol-2-yl]-2-ethyl-6-methyl-phenoxy}-propane-1,2-diol], the change in vivo at 10 mg/kg in data set [2] was -51%. The “% trachea constriction at 1 μM” value in data set [3] was 53%. In addition, the EC50 in data set [1] stood at 1.9 nM.
For the compound `CCc1cc(-c2nnc(-c3cc(OC)nc(C4CCCC4)c3)o2)cc(C)c1OC[C@@H](O)CNC(=O)CO` [Example 27, N-((2S)-3-{4-[5-(2-Cyclopentyl-6-methoxy-pyridin-4-yl)-[1,3,4]oxadiazol-2-yl]-2-ethyl-6-methyl-phenoxy}-2-hydroxy-propyl)-2-hydroxy-acetamide], the change in vivo at 10 mg/kg in data set [2] was -54%. In data set [1], the half-maximal effective concentration (EC50) is 1.7 nM.
With `CCc1cc(-c2noc(-c3cc(OC)nc(C(CC)CC)c3)n2)cc(C)c1OC[C@@H](O)CN(C)C(=O)CO` [Example 9, N-[(2S)-3-(2-Ethyl-4-{5-[2-(1-ethyl-propyl)-6-methoxy-pyridin-4-yl]-[1,2,4]oxadiazol-3-yl}-6-methyl-phenoxy)-2-hydroxy-propyl]-2-hydroxy-N-methyl-acetamide], the EC50 in data set [1] was 17.8 nM.
`CCS(=O)(=O)Nc1c(C)cc(-c2noc(-c3cc(OC)nc(C4CCCC4)c3)n2)cc1Cl` [Example 5, Ethanesulfonic acid {2-chloro-4-[5-(2-cyclopentyl-6-methoxy-pyridin-4-yl)-[1,2,4]oxadiazol-3-yl]-6-methyl-phenyl}-amide]: the change in vivo at 10 mg/kg in data set [2] was -66%. In addition, the EC50 in data set [1] came to 1.8 nM.
Regarding `CCc1cc(-c2noc(-c3cc(OC)nc(C4CCCC4)c3)n2)cc(C)c1OC[C@H](O)CO` [Example 3, (R)-3-{4-[5-(2-Cyclopentyl-6-methoxy-pyridin-4-yl)-[1,2,4]oxadiazol-3-yl]-2-ethyl-6-methyl-phenoxy}-propane-1,2-diol], the change in vivo at 10 mg/kg in data set [2] is -63%. Moreover, in data set [3] (compared to closest prior art analogues of WO 2008/029371 or to Example 2), the “potential to constrict rat trachea rings (comparison in words)” value is on record as “same low potential to constrict rat trachea rings”. Moreover, the “% trachea constriction at 1 μM” value in data set [3] is listed as under 5%. Further, the EC50 in data set [1] was determined as 1 nM.
As to `COc1cc(-c2nc(-c3cc(C)c(OC[C@@H](O)CO)c(Cl)c3)no2)cc(C2CCCC2)n1` [Example 13, (S)-3-{2-Chloro-4-[5-(2-cyclopentyl-6-methoxy-pyridin-4-yl)-[1,2,4]oxadiazol-3-yl]-6-methyl-phenoxy}-propane-1,2-diol], in data set [2], the change in vivo at 10 mg/kg is -60%. Further, the “% trachea constriction at 1 μM” value in data set [3] is under 5%. The 50% effective concentration (EC50) in data set [1] was 1 nM.
With `COc1cc(-c2nc(-c3cc(C)c(OC[C@@H](O)CO)c(Cl)c3)no2)cc(C2CCCCC2)n1` [Example 29, (S)-3-{2-Chloro-4-[5-(2-cyclohexyl-6-methoxy-pyridin-4-yl)-[1,2,4]oxadiazol-3-yl]-6-methyl-phenoxy}-propane-1,2-diol], the change in vivo at 10 mg/kg in data set [2] is -62%. For the same compound, in data set [1], the EC50 turned out to be 4 nM.
Consider `CCc1cc(-c2noc(-c3cc(CCC(C)C)nc(OC)c3)n2)cc(C)c1OC[C@@H](O)CO` [Example 15, (S)-3-(2-Ethyl-4-{5-[2-methoxy-6-(3-methyl-butyl)-pyridin-4-yl]-[1,2,4]oxadiazol-3-yl}-6-methyl-phenoxy)-propane-1,2-diol], for which the half-maximal effective concentration (EC50) in data set [1] amounted to 7.5 nM.
Regarding `COc1cc(-c2nc(-c3cc(C)c(OC[C@@H](O)CNC(=O)CO)c(Cl)c3)no2)cc(C2CCCC2)n1` [Example 14, N-((2S)-3-{2-Chloro-4-[5-(2-cyclopentyl-6-methoxy-pyridin-4-yl)-[1,2,4]oxadiazol-3-yl]-6-methyl-phenoxy}-2-hydroxy-propyl)-2-hydroxy-acetamide], the change in vivo at 10 mg/kg in data set [2] was -70%. Also, in data set [1], the 50% effective concentration (EC50) is 1.1 nM.
Take `CCc1cc(-c2nc(-c3cc(OC)nc(C4CCCC4)c3)no2)cc(C)c1OC[C@H](O)CO` [Example 22, (R)-3-{4-[3-(2-Cyclopentyl-6-methoxy-pyridin-4-yl)-[1,2,4]oxadiazol-5-yl]-2-ethyl-6-methyl-phenoxy}-propane-1,2-diol]: the EC50 in data set [1] worked out at 1 nM.
Regarding `CCc1cc(-c2noc(-c3cc(OC)nc(C4CCCCC4)c3)n2)cc(C)c1NS(C)(=O)=O` [Example 20, N-{4-[5-(2-Cyclohexyl-6-methoxy-pyridin-4-yl)-[1,2,4]oxadiazol-3-yl]-2-ethyl-6-methyl-phenyl}-methanesulfonamide], the change in vivo at 10 mg/kg in data set [2] is -67%. For the same compound, the EC50 in data set [1] was determined as 4.2 nM.
For `COc1cc(-c2nc(-c3cc(C)c(NS(C)(=O)=O)c(Cl)c3)no2)cc(C2CCCCC2)n1` [Example 17, N-{2-Chloro-4-[5-(2-cyclohexyl-6-methoxy-pyridin-4-yl)-[1,2,4]oxadiazol-3-yl]-6-methyl-phenyl}-methanesulfonamide], in that order: -80% and 10.2 nM.
For the compound `CCC(CC)c1cc(-c2nc(-c3cc(C)c(NS(C)(=O)=O)c(Cl)c3)no2)cc(OC)n1` [Example 11, N-(2-Chloro-4-{5-[2-(1-ethyl-propyl)-6-methoxy-pyridin-4-yl]-[1,2,4]oxadiazol-3-yl}-6-methyl-phenyl)-methanesulfonamide], in data set [2], the change in vivo at 10 mg/kg was -74%. Further, the EC50 in data set [1] was 1.2 nM.
With `CCc1cc(-c2nnc(-c3cc(OC)nc(C4CCCC4)c3)o2)cc(C)c1OC[C@H](O)CNC(=O)CO` [Example 28, N-((2R)-3-{4-[5-(2-Cyclopentyl-6-methoxy-pyridin-4-yl)-[1,3,4]oxadiazol-2-yl]-2-ethyl-6-methyl-phenoxy}-2-hydroxy-propyl)-2-hydroxy-acetamide], in data set [1], the concentration for a half-maximal effect (EC50) worked out at 2.3 nM.
Turning to `CCc1cc(-c2nc(-c3cc(OC)nc(C4CCCC4)c3)no2)cc(C)c1OC[C@@H](O)CNC(=O)CO` [Example 23, N-((2S)-3-{4-[3-(2-Cyclopentyl-6-methoxy-pyridin-4-yl)-[1,2,4]oxadiazol-5-yl]-2-ethyl-6-methyl-phenoxy}-2-hydroxy-propyl)-2-hydroxy-acetamide], in data set [2], the change in vivo at 10 mg/kg was -56%. Besides, the 50% effective concentration (EC50) in data set [1] is 0.4 nM.
